Where two headings read alike, the source gives them in different places.
Key:
L1210vDOX = assay: Reversal of MDR in L1210vDOX (MDR sensitization assay, doxorubicin with or without MDR inhibitor); type: cell-based, mouse; details: for IC50: 3 days
HL60/ADR cells = assay: Reversal of MRP-mediated MDR in HL60/ADR cells (doxorubicin with or without MDR inhibitor); type: cell-based; details: for Fold reversal (IC50 doxorubicin alone / IC50 doxorubicin + MDR inhibitor): HL60/ADR
Protocol: We plated HL60/ADR cells in 96 well microtiter plates (4×10^4 cells/well). The cells were then exposed to various concentrations of doxorubicin (50 nM to 10 μM) in the presence or absence of various compounds of this invention at various concentrations (0.5-10 μM). After culturing the cells for 3 days, their viability was quantitated using the XTT dye method to assess mitochondrial function. […] IC50 values are expressed in nM. In all assays the intrinsic antiproliferative or cytotoxicity activity of the MDR inhibitors was also determined for HL60/ADR cells.

[1] = IC50 of doxorubicin in presence of 0.5 μM Cpd, read-out: IC50 DOX + 0.5 μM Cpd
[2] = IC50 of doxorubicin in presence of 1.0 μM Cpd, read-out: IC50 DOX + 1.0 μM Cpd
[3] = IC50 of doxorubicin in presence of 2.5 μM Cpd, read-out: IC50 DOX + 2.5 μM Cpd

| SMILES | MDR ratio (IC50 Dox / IC50 Dox+Inhibitor) (L1210vDOX; MDR ratio at 0.5 μM Cpd) | MDR ratio (IC50 Dox / IC50 Dox+Inhibitor) (L1210vDOX; MDR ratio at 1.0 μM Cpd) | MDR ratio (IC50 Dox / IC50 Dox+Inhibitor) (L1210vDOX; MDR ratio at 2.5 μM Cpd) | Fold reversal (IC50 doxorubicin alone / IC50 doxorubicin + MDR inhibitor) (HL60/ADR cells; ratio at 0.5 μM Cpd) | Fold reversal (IC50 doxorubicin alone / IC50 doxorubicin + MDR inhibitor) (HL60/ADR cells; ratio at 1.0 μM Cpd) | Fold reversal (IC50 doxorubicin alone / IC50 doxorubicin + MDR inhibitor) (HL60/ADR cells; ratio at 2.5 μM Cpd) | IC50 (L1210vDOX; [1]) [nM] | IC50 (L1210vDOX; [2]) [nM] | IC50 (L1210vDOX; [3]) [nM] | IC50 (HL60/ADR cells; Homo sapiens, 72 h, doxorubicin alone, control of the compound of the line, HL60/ADR cells, 3 days, read-out: IC50 DOX Alone) [nM] |
| --- | --- | --- | --- | --- | --- | --- | --- | --- | --- | --- |
| COc1cc(C(=O)C(=O)N2CCCC[C@H]2C(=O)N(Cc2ccccc2)C2CCCc3ccc(OCc4ccncc4)cc32)cc(OC)c1OC (single isomer, unassigned) [Compound 15] | 6.1 | > 8.5 | > 8.5 |  |  |  |  |  |  |  |
| COc1cc(C(=O)C(=O)N2CCCC[C@H]2C(=O)N(Cc2ccccc2)C2CCCc3ccc(OCc4ccncc4)cc32)cc(OC)c1OC (single isomer, unassigned) [Compound 16] | 2.2 | 7.1 | > 8.5 | 2.3 | 39 | > 60 |  |  |  |  |
| CCCOc1cc2c(c(OCCC)c1C)CC[C@@H](Cc1cccnc1)[C@H]2OC(=O)[C@@H]1CCCCN1C(=O)C(=O)c1cc(OC)c(OC)c(OC)c1 (single isomer, unassigned) [Compound 29B] | 1.8 | 3.7 | > 7.0 |  |  |  |  |  |  |  |
| CCCOc1cc2c(c(OCCC)c1C)CC[C@H](Cc1cccnc1)[C@H]2OC(=O)[C@@H]1CCCCN1C(=O)C(=O)c1cc(OC)c(OC)c(OC)c1 (single isomer, unassigned) [Compound 30A] | 1.4 | 2.3 | > 7.0 |  |  |  |  |  |  |  |
| CCCOc1cc2c(c(OCCC)c1C)CC[C@@H](Cc1cccnc1)[C@@H]2OC(=O)[C@@H]1CCCCN1C(=O)C(=O)c1cc(OC)c(OC)c(OC)c1 (single isomer, unassigned) [Compound 30B] | 1.4 | 2.0 | > 7.0 |  |  |  |  |  |  |  |
| COc1cc(C(=O)C(=O)N2CCCC[C@H]2C(=O)O[C@H]2CCCc3ccc(OCc4ccncc4)cc32)cc(OC)c1OC [Compound 6, 1-(2-Oxo-2-(3,4,5-trimethoxyphenyl)-acetyl)-piperidine-2(S)-carboxylic acid 2-((7-pyridin-4-ylmethoxy)-1,2,3,4-tetrahydronaphthalen-1(S)-yl) ester] | 4.8 | 6.3 | 9.5 | 8.8 | 6.4 | 39 |  |  |  |  |
| COc1cc(C(=O)C(=O)N2CCCC[C@H]2C(=O)O[C@@H]2CCCc3ccc(OCc4ccncc4)cc32)cc(OC)c1OC [Compound 7, 1-(2 -Oxo-2(3,4,5-trimethoxyphenyl)-acetyl)-piperidine-2(S)-carboxylic acid 2-((7-pyridin-4-ylmethoxy)-1,2,3,4-tetrahydronaphthalen-1(R)-yl) ester] | 23.1 | 4.8 | 9.5 |  |  |  |  |  |  |  |
| COc1cc(C(=O)C(=O)N2CCCC[C@H]2C(=O)OC2CCCc3c(OCc4ccncc4)cccc32)cc(OC)c1OC (stereo partly drawn) [Compound 9, 1-(2-Oxo-2-(3,4,5-trimethoxyphenyl)-acetyl)-piperidine-2(S)-carboxylic acid 2-((5-pyridin-4-ylmethoxy)-1,2,3,4-tetrahydronaphthalen-1-yl) ester] | 6.4 | 13.7 | 22.8 |  |  |  | 750 | 350 | 175 |  |
| COc1cc(C(=O)C(=O)N2CCCC[C@H]2C(=O)N[C@@H]2CCCc3ccc(OCc4ccncc4)cc32)cc(OC)c1OC [Compound 11A, 1-(2-Oxo-2-(3,4,5-trimethoxyphenyl)-acetyl)-piperidine-2(S)-carboxylic acid 2-((7-pyridin-4-ylmethoxy)-1,2,3,4-tetrahydronaphthalen-1(R)-yl) amide] | 1.1 | 2.0 | 4.0 |  |  |  | 650 | 350 | 175 |  |
| COc1cc(C(=O)C(=O)N2CCCC[C@H]2C(=O)N[C@H]2CCCc3ccc(OCc4ccncc4)cc32)cc(OC)c1OC [Compound 11B, 1-(2-Oxo-2-(3,4,5-trimethoxyphenyl)-acetyl)-piperidine-2(S)-carboxylic acid 2-((7-pyridin-4-ylmethoxy)-1,2,3,4-tetrahydronaphthalen-1(S)-yl) amide] | 1.8 | 2.2 | 10.0 |  |  |  | 400 | 325 | 70 |  |
| COc1cc(C(=O)C(=O)N2Cc3ccccc3C[C@H]2C(=O)O[C@@H]2CCCc3ccc(OCc4ccncc4)cc32)cc(OC)c1OC [Compound 17, 2-(2-Oxo-2-(3,4,5-trimethoxyphenyl)-acetyl)-1,2,3,4-tetrahydroisoquinoline-3(S)-carboxylic acid 2-((7-pyridin-4-ylmethoxy)-1,2,3,4-tetrahydronaphthalen-1(R)-yl) ester] | 5.6 | 8.7 | 11.1 | 2.3 | 11.7 | 11.7 |  |  |  |  |
| COc1cc(C(=O)C(=O)N2Cc3ccccc3C[C@H]2C(=O)O[C@H]2CCCc3ccc(OCc4ccncc4)cc32)cc(OC)c1OC [Compound 18, 2-(2-Oxo-2-(3,4,5-trimethoxyphenyl)-acetyl)-1,2,3,4-tetrahydroisoquinoline-3(S)-carboxylic acid 2-((7-pyridin-4-ylmethoxy)-1,2,3,4-tetrahydronaphthalen-1(S)-yl) ester] | 3.3 | 6.7 | 10.0 |  |  |  |  |  |  |  |
| COc1cc(C(=O)C(=O)N[C@@H](Cc2ccccc2)C(=O)O[C@@H]2CCCc3ccc(OCc4ccncc4)cc32)cc(OC)c1OC [Compound 19, 3-Benzyl-2(S)-((2-oxo-2-(3,4,5-trimethoxyphenyl-)acetyl)amino) propanoic acid ((7-pyridin-4-ylmethoxy)-1,2,3,4-tetrahydronaphthalen-1(R)-yl) ester] | 1.6 | 2.4 | 6.3 |  |  |  |  |  |  |  |
| COc1cc(C(=O)C(=O)N(C)[C@@H](Cc2ccccc2)C(=O)O[C@@H]2CCCc3ccc(OCc4ccncc4)cc32)cc(OC)c1OC [Compound 20, 3-Benzyl-2(S)-(methyl-(2-oxo-2-(3,4,5-trimethoxyphenyl)-acetyl)amino) propanoic acid ((7-pyridin-4-ylmethoxy)-1,2,3,4-tetrahydronaphthalen-1(R)-yl) ester] | 3.0 | 7.0 | 10.5 |  |  |  |  |  |  |  |
| COc1cc(C(=O)C(=O)N(C)[C@@H](Cc2ccccc2)C(=O)O[C@H]2CCCc3ccc(OCc4ccncc4)cc32)cc(OC)c1OC [Compound 21] | 5.4 | 6.8 | 8.7 | 3.5 | 3.2 | 23 |  |  |  |  |
| CCCOc1cc2c(c(OCCC)c1C)CC[C@H](Cc1cccnc1)[C@@H]2OC(=O)[C@@H]1CCCCN1C(=O)C(=O)c1cc(OC)c(OC)c(OC)c1 [Compound 29A] | 1.4 | 1.8 | > 7.0 |  |  |  | 250 | 190 | < 50 |  |
| COc1cccc2c1C(=O)c1c(O)c3c(c(O)c1C2=O)C[C@@](O)(C(=O)CO)C[C@@H]3O[C@H]1C[C@H](N)[C@H](O)[C@H](C)O1 [DOX, doxorubicin, reference compound] |  |  |  |  |  |  |  |  |  | 3500 |

From patent US5726184A, “Tetralin compounds with improved MDR activity” (Vertex Pharmaceuticals Incorporated, priority 1995, dated 1998)
